Source: US7238669B2, “Phage-display peptides as novel antimicrobial agents against Haemophilus influenzae” (priority 2002, dated 2007)

Columns and labels:
NTHi = test: Microscopic examination of cell membrane integrity; assay type: cell-based, Haemophilus influenzae; conditions: microscopic results
Proteus [1] = test: Growth of other bacterial species in presence of hi3/17; assay type: cell-based, Proteus mirabilis; conditions: FIG. 4
Protocol: (§1) (Salmonella), Enterococcus faecialis (E. faec.), Staphylococcus aureus (S. aur.) and Pseudomonas aeruginosa (P. aeru.). One hundred and fifty μl of the test bacteria were incubated in the presence of either hi3/17, f88 unselected phage display library in sBHI broth (supplemented with 10 μg/mL heme and NAD+) or control sBHI at 37° C. The next day, the optical densities of the bacterial cultures were evaluated by direct measurement of the optical densities at OD630 nm. Dilutions of the bacteria were incubated on sBHI agar plates to determine the total number of colonies per well.

Staphylococcus aureus = test: as above; assay type: cell-based; conditions: FIG. 4
Protocol: as §1

Enterococcus faecialis [2] = test: as above; assay type: cell-based; conditions: FIG. 4
Protocol: as §1

Proteus [3] = test: Binding to bacteria via ELISA; set-up: species or system Proteus mirabilis
Int-1 strain of NTHi = test: Inhibition of Int-1 growth by phage-displayed peptides (overnight in sBHI broth, OD630 and colony counts); assay type: cell-based, Haemophilus influenzae; conditions: for MIC concentration resulting in no bacterial growth: FIGS. 3A and 3B
Protocol: The next day, the optical densities of the bacterial cultures were evaluated by direct measurement of the optical densities at OD630 nm.
Int-1, a non-typeable clinical isolate, was isolated in 1991 from the blood of a child with clinical symptoms of meningitis. It is virulent in rat models and is able to survive in human serum. Kw20, a non-typeable strain, was isolated in 1954. R3001, a non-typeable clinical isolate, was isolated from a bronchial lavage of a cystic fibrosis patient. R2140, is a non-typeable clinical isolate. R538 is a Haemophilus influenzae type b ATCC strain No. 9795. E1a is a type b Haemophilus influenzae clinical isolate.

Enterococcus faecialis [4] = test: Binding to bacteria via ELISA

Row | Sequence | effect on cell membrane integrity of NTHi (NTHi) | antimicrobial activity against Proteus (Proteus [1]) | inhibition of growth of Staphylococcus aureus (Staphylococcus aureus) | antimicrobial activity against Enterococcus faecialis (Enterococcus faecialis [2]) | binding via ELISA (Proteus [3]) | MIC (Int-1 strain of NTHi) | bactericidal activity against Int-1 (Int-1 strain of NTHi) | greater antimicrobial activity towards Int-1 compared with Group 2 phage displayed peptides (Int-1 strain of NTHi) | MIC concentration resulting in no bacterial growth (Int-1 strain of NTHi) | binding via ELISA (Enterococcus faecialis [4])
1 | KQRTSIRATEGCLPS [hi3/17] | altered the cell membrane integrity | no activity | completely inhibit the growth | no activity | binding being detectable | ~1e10 virions per μl | bactericidal | over 5 fold | 3.64×10^9 virions | binding being detectable
2 | VVFLSSRNSAVFTDF [fUSE5/2] | altered the cell membrane integrity | – | – | – | – | – | bactericidal | – | 2.4×10^10 virions | –
